pIC50: −log10 of the molar value.
Tests used:
[1] = biological target: T1, IRAK4 (Homo sapiens, UniProt Q9NWZ3); test: NanoBRET target engagement assay in HEK-293 cells, IRAK4; assay type: cell-based; conditions: live HEK-293 cells, 1 h
T1 sequence (Q9NWZ3 1-460): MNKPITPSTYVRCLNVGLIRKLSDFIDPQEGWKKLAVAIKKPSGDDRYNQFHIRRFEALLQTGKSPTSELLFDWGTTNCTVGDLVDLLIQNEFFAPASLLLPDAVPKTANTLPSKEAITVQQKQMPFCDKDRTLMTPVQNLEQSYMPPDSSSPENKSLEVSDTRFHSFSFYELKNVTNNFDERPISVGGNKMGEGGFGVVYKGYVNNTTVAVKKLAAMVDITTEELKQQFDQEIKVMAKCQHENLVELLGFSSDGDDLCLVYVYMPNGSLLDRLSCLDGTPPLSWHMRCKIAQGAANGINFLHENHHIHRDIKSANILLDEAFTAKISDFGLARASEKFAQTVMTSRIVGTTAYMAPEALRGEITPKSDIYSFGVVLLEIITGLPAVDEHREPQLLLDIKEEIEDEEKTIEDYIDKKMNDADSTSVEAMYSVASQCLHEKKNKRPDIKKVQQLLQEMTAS
Excerpt: (§1) The NanoBRET assay measures kinase engagement in real time in the context of the intact cell. Unlike the previously described biochemical kinase assay methodology, the NanoBRET assay measures the binding and activity characteristics under equilibrium conditions using full-length kinases in the presence of cellular concentrations of ATP in live, uncompromised cells. As such, the assay provides a more relevant assessment of kinase potency and selectivity that would be expected to be observed in the native cellular environment, where potency is often considerably lower than that observed in the isolated biochemical assays (Vasta, J. D. et al., (2018) Cell Chem. Biol. 25, 206-214). The assay uses a Kinase-NanoLuc® fusion vector expressing a kinase protein to which a luciferase tag has been added, a cell-permeant fluorescent NanoBRET™ tracer, a NanoLuc® substrate, and an extracellular NanoLuc® inhibitor. Upon expression of the luciferase-tagged kinase, cells will produce a strong BRET signal only in the presence of the NanoBRET™ tracer. The extracellular NanoLuc® inhibitor ensures that the BRET signal observed emanates only from live cells. Because the BRET signal has tight distance constraints, addition of the test compound will decrease the BRET signal if the compound competes with the NanoBRET™ tracer for binding to the kinase domain. Under the appropriate tracer conditions established by the manufacturer, quantitative intracellular affinity and relative potency can then be determined using Mass Action model equations.
(§2) HEK-293 cells were purchased from ATCC. FuGENEHD Transfection Reagent, Kinase-NanoLucfusion plasmids, Transfection Carrier DNA, NanoBRETTracers and dilution buffer, NanoBRETNano-Glo Substrate, Extracellular NanoLucInhibitor were obtained from Promega.
(§3) Assays were conducted following Promega assay protocol with some modifications. HEK-293 Cells were transiently transfected with Kinase-NanoLucFusion Vector DNA by FuGENEHD Transfection Reagent. Testing compounds were delivered into 384 well assay plate by Echo 550 (LabcyteInc, Sunnyvale, CA). Transfected cells were harvested and mixed with NanoBRETTracer Reagent and dispensed into 384 well plates and incubated at 37 °C in 5% CO2 cell culture incubator for 1 hour. The NanoBRETNano-Glo Substrate plus Extracellular NanoLucInhibitor Solution were added into the wells of the assay plate and incubated for 2-3 minutes at room temperature. The donor emission wavelength (460 nm) and acceptor emission wavelength (600 nm) were measured in the En Visionplate reader. The BRET Ratios were calculated.
(§4) BRET Ratio=[(Acceptor sample÷Donor sample)−(Acceptor no-tracer control÷Donor no-tracer control)].
(§5) The IC50 values of compounds were calculated with Prism GraphPad program.
(§6) • 1). Cultivate HEK-293 cells (70-80% confluence) appropriately prior to assay. Trypsinize and collect HEK-293 cells. • 2). Prepare lipid:DNA complexes as follows: • a. Prepare a 10 μg/ml solution of DNA in Opti-MEM without serum that consists of the following ratios of carrier DNA and DNA encoding NanoLuc® fusion. 9.0 μg/mL of Transfection Carrier DNA, 1.0 μg/mL of NanoLuc fusion vector DNA and 1 mL of Opti-MEM without phenol red. Mix thoroughly. • b. Add 30 μl of FuGENE HD Transfection Reagent into each milliliter of DNA mixture to form lipid:DNA complex. • c. Mix by inversion 10 times. • d. Incubate at ambient temperature for 20 minutes to allow complexes to form. • 3). In a sterile, conical tube, mix 1 part of lipid:DNA complex with 20 parts of HEK-293 cells in suspension. Mix gently by inversion 5 times. • 4). Dispense cells+lipid:DNA complex into a sterile tissue culture dish and incubate for 22-24 hours.
(§7) Each test compound is delivered from the compound source plate to the wells of 384-well white NBS plate by Echo 550.
(§8) 3. Preparation of Cells with NanoBRET™ Tracer Reagent • 1). Remove medium from dish with transfected HEK-293 cells via aspiration, trypsinize and allow cells to dissociate from the dish. • 2). […]

[2] = biological target: T2, FLT3 (Homo sapiens, UniProt P36888); test: NanoBRET target engagement assay in HEK-293 cells, FLT3; assay type: cell-based; conditions: live HEK-293 cells, 1 h
T2 sequence (P36888 27-993): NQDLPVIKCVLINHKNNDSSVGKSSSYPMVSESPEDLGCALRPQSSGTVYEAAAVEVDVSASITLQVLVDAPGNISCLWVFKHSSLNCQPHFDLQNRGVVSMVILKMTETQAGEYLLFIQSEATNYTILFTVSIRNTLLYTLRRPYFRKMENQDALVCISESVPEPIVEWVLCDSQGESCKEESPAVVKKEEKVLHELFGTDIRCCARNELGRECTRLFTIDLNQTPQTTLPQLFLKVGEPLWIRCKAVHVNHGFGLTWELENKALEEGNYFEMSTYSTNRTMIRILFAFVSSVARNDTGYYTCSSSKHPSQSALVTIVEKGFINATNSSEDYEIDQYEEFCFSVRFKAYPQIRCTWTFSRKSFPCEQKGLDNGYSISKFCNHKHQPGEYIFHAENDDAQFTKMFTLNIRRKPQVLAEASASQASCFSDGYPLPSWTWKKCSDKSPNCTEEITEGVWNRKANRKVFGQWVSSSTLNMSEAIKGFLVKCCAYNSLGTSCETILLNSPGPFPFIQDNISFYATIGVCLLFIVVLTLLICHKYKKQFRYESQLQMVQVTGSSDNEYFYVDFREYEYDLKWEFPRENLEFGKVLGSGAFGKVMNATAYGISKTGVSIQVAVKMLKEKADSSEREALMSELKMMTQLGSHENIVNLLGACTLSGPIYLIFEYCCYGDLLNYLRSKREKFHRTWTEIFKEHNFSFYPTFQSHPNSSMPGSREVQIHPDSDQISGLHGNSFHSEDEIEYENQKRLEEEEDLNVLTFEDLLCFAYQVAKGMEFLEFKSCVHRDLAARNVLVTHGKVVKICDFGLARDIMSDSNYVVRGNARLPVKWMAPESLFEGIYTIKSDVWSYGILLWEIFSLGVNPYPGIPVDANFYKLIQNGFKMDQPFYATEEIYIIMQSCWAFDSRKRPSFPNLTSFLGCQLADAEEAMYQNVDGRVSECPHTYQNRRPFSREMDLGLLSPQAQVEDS
Excerpt: as §1, §2, §3, §4, §5, §6, §7, §8

pIC50 ([1]; Table 14) | pIC50 ([2]; Table 14) | pIC50 ([1]; Table 20) | pIC50 ([2]; Table 20) | SMILES
 |  | 8.52 | 7.28 | COc1cn2ncc(-c3nc(N[C@@H]4CCCNC4)ncc3F)c2nc1C(C)(C)O [Compound 4a, (R)-2-(3-(5-fluoro-2-(piperidin-3-ylamino)pyrimidin-4-yl)-6-methoxypyrazolo[1,5-a]pyrimidin-5-yl)propan-2-ol]
 |  | 8.70 | 6.95 | COc1cn2ncc(-c3nc(N[C@H]4CNC[C@@H]4F)ncc3F)c2nc1C(C)(C)O [Compound 5a, 2-(3-(5-fluoro-2-(((3S,4S)-4-fluoropyrrolidin-3-yl)amino)pyrimidin-4-yl)-6-methoxypyrazolo[1,5-a]pyrimidin-5-yl)propan-2-ol]
 |  | > 9.30 | 7.92 | COc1cn2ncc(-c3nc(N[C@H]4CNCC[C@@H]4F)ncc3F)c2nc1C(C)(C)O [Compound 6a, 2-(3-(5-fluoro-2-(((3S,4S)-4-fluoropiperidin-3-yl)amino)pyrimidin-4-yl)-6-methoxypyrazolo[1,5-a]pyrimidin-5-yl)propan-2-ol]
> 9.30 | 8.30 |  |  | COc1cn2ncc(-c3nc(N[C@@H]4CCCNC4)c(F)cc3F)c2nc1C(C)(C)O [Compound 11, (R)-2-(3-(3,5-difluoro-6-(piperidin-3-ylamino)pyridin-2-yl)-6-methoxypyrazolo[1,5-a]pyrimidin-5-yl)propan-2-ol]
> 9.30 | 8.40 |  |  | COc1cn2ncc(-c3nc(N[C@H]4CNCC[C@@H]4F)c(F)cc3F)c2nc1C(C)(C)O [Compound 13, 2-(3-(3,5-difluoro-6-(((3S,4S)-4-fluoropiperidin-3-yl)amino)pyridin-2-yl)-6-methoxypyrazolo[1,5-a]pyrimidin-5-yl)propan-2-ol]
 |  | > 9.30 | > 9.30 | COc1cn2ncc(-c3nc(N[C@@H]4CCCNC4)ncc3F)c2nc1C1CC1 [Compound 14a, (R)-4-(5-cyclopropyl-6-methoxypyrazolo[1,5-a]pyrimidin-3-yl)-5-fluoro-N-(piperidin-3-yl)pyrimidin-2-amine]

More lines, now with the values behind:

SMILES | pIC50 ([1]; Table 14) | pIC50 ([2]; Table 14) | pIC50 ([1]; Table 20) | pIC50 ([2]; Table 20)
COc1cn2ncc(-c3nc(N[C@H]4CNCC[C@@H]4F)ccc3F)c2nc1C1CC1 [Compound 3, 6-(5-cyclopropyl-6-methoxypyrazolo[1,5-a]pyrimidin-3-yl)-5-fluoro-N-((3S,4S)-4-fluoropiperidin-3-yl)pyridin-2-amine] | > 9.30 | > 9.30 |  | 
COc1cn2ncc(-c3ccnc(N[C@H]4CNCC[C@@H]4F)n3)c2nc1C(C)(C)O [Compound 3a, 2-(3-(2-(((3S,4S)-4-fluoropiperidin-3-yl)amino)pyrimidin-4-yl)-6-methoxypyrazolo[1,5-a]pyrimidin-5-yl)propan-2-ol] |  |  | 8.10 | 5.82
COc1cn2ncc(-c3ccc(F)c(N[C@@H]4CCCNC4)n3)c2nc1C1CC1 [Compound 5, (R)-6-(5-cyclopropyl-6-methoxypyrazolo[1,5-a]pyrimidin-3-yl)-3-fluoro-N-(piperidin-3-yl)pyridin-2-amine] | 8.52 | 8.05 |  | 
COc1cn2ncc(-c3ccc(F)c(N[C@H]4CNCC[C@@H]4F)n3)c2nc1C1CC1 [Compound 6, 6-(5-cyclopropyl-6-methoxypyrazolo[1,5-a]pyrimidin-3-yl)-3-fluoro-N-((3S,4S)-4-fluoropiperidin-3-yl)pyridin-2-amine] | > 9.30 | > 9.30 |  | 
COc1cn2ncc(-c3ccnc(N[C@H]4CNCC[C@@H]4F)n3)c2nc1C1CC1 [Compound 7a, 4-(5-cyclopropyl-6-methoxypyrazolo[1,5-a]pyrimidin-3-yl)-N-((3S,4S)-4-fluoropiperidin-3-yl)pyrimidin-2-amine] |  |  | 9.10 | 8.05
COc1cn2ncc(-c3ccnc(N[C@H]4CNC[C@@H]4F)n3)c2nc1C1CC1 [Compound 8a, 4-(5-cyclopropyl-6-methoxypyrazolo[1,5-a]pyrimidin-3-yl)-N-((3S,4S)-4-fluoropyrrolidin-3-yl)pyrimidin-2-amine] |  |  | 9.22 | 7.96
COc1cn2ncc(-c3cncc(N[C@@H]4CCCNC4)n3)c2nc1C1CC1 [Compound 11a, (R)-6-(5-cyclopropyl-6-methoxypyrazolo[1,5-a]pyrimidin-3-yl)-N-(piperidin-3-yl)pyrazin-2-amine] |  |  | > 9.30 | 8.70
COc1cn2ncc(-c3nc(N[C@H]4CNC[C@@H]4F)c(F)cc3F)c2nc1C(C)(C)O [Compound 12, 2-(3-(3,5-difluoro-6-(((3S,4S)-4-fluoropyrrolidin-3-yl)amino)pyridin-2-yl)-6-methoxypyrazolo[1,5-a]pyrimidin-5-yl)propan-2-ol] | > 9.30 | 6.49 |  | 
COc1cn2ncc(-c3cncc(N[C@H]4CNCC[C@@H]4F)n3)c2nc1C1CC1 [Compound 12a, 6-(5-cyclopropyl-6-methoxypyrazolo[1,5-a]pyrimidin-3-yl)-N-((3S,4S)-4-fluoropiperidin-3-yl)pyrazin-2-amine] |  |  | > 9.30 | 9.00
COc1cn2ncc(-c3nc(N[C@H]4CNC[C@@H]4F)ncc3F)c2nc1C1CC1 [Compound 13a, 4-(5-cyclopropyl-6-methoxypyrazolo[1,5-a]pyrimidin-3-yl)-5-fluoro-N-((3S,4S)-4-fluoropyrrolidin-3-yl)pyrimidin-2-amine] |  |  | > 9.30 | 9.30

From US20260374773A1, “MULTI-CYCLIC IRAK AND FLT3 INHIBITING COMPOUNDS AND USES THEREOF” (CHILDREN'S HOSPITAL MEDICAL CENTER, priority 2022, published 2026)
